In patent US9107926B2, “Mutant selectivity and combinations of a phosphoinositide 3-kinase inhibitor compound and chemotherapeutic agents for the treatment of cancer” (Genentech, Inc., priority 2012, dated 2015):

Columns and labels:
[1] = test system: LN-229; test: CellTiter-Glo cell proliferation assay; assay type: cell-based; settings: Homo sapiens, Glioma, Helical-HET.545E > K
[2] = test system: SW48 isogenic cells; parental and PIK3CA knock-in mutants E545K and H1047R; test: western blot of cell lysates after 18 hours of GDC-0032 exposure; assay type: cell-based; settings: lysates collected 18 hours post dosing
[3] = test system: LXFL-529; test: CellTiter-Glo cell proliferation assay; assay type: cell-based; settings: Homo sapiens, Lung(NSCLC), Helical-HET.542E > K
[4] = test system: CAL51; test: CellTiter-Glo cell proliferation assay; assay type: cell-based; settings: Homo sapiens, CAL-51, Breast, PTEN/HET.542E > K
Description: (§1) Cell Culture Medium: RPMI or DMEM high glucose, 10% Fetal Bovine Serum, 2 mM L-Glutamine, P/S. Incubate O/N (overnight) at 37° C., 5% CO2.
(§2) Drug Addition to Cells, Cell Plate (1:10 dilution): Add 6 μl of media+compound directly to cells (54 μl of media on the cells already). Incubate 3 days at 37° C., 5% CO2 in an incubator that will not be opened often.
(§3) Day 5—Develop Plates, Thaw Cell Titer Glo Buffer at room temperature: Remove Cell Plates from 37° C. and equilibrate to room temperature for about 30 minutes. Add Cell Titer-Glo® Buffer to Cell Titer-Glo® Substrate (bottle to bottle). Add 30 μl Cell Titer-Glo® Reagent (Promega cat.#G7572) to each well of cells. Place on plate shaker for about 30 minutes. Read luminescence on Analyst HT Plate Reader (half second per well).

[5] = test system: H82; test: CellTiter-Glo cell proliferation assay; assay type: cell-based; settings: Homo sapiens, NCI-H82, Lung(SC), PTEN
[6] = test system: H2009; test: CellTiter-Glo cell proliferation assay; assay type: cell-based; settings: Homo sapiens, NCI-H2009, Lung(NSCLC), K-RAS
[7] = test system: HCC1954.x1 breast tumor xenografts; test: In vivo mouse tumor xenograft efficacy; design: species or system mice; settings: for % TGI@ day 21: QD x 21, PO
Description: The term uL means microliter.
Xenografts were initiated with cancer cells. […] Volume was calculated using the formula: […]

[8] = test system: SKBR3; test: CellTiter-Glo cell proliferation assay; assay type: cell-based; settings: Homo sapiens, SK-BR-3, Breast, HER2 Amplified
Description: as §1, §2, §3

[9] = test system: HCC-70; test: CellTiter-Glo cell proliferation assay; assay type: cell-based; settings: Homo sapiens, HCC70, Breast, PTEN
[10] = test system: BT474; test: CellTiter-Glo cell proliferation assay; assay type: cell-based; settings: Homo sapiens, BT-474, Breast, HER2 Amplified
[11] = test system: MFM223; test: CellTiter-Glo cell proliferation assay; assay type: cell-based; settings: Homo sapiens, MFM-223, Breast, Kinase-HET.1047H > R, HET.350D > N
Description: as §1, §2, §3

[12] = test system: MO59J; test: CellTiter-Glo cell proliferation assay; assay type: cell-based; settings: Glioma, PTEN/KRAS
[13] = test system: HCC1954; test: CellTiter-Glo cell proliferation assay; assay type: cell-based; settings: Homo sapiens, Breast, Kinase-HOM.1047H > L
Description: as §1, §2, §3

[14] = test system: MO59K; test: CellTiter-Glo cell proliferation assay; assay type: cell-based; settings: Glioma, PTEN/KRAS
[15] = test system: U-118MG; test: CellTiter-Glo cell proliferation assay; assay type: cell-based; settings: Homo sapiens, Glioma, PTEN
[16] = test system: H1650; test: CellTiter-Glo cell proliferation assay; assay type: cell-based; settings: Homo sapiens, NCI-H1650, Lung(NSCLC), PTEN
[17] = test system: HOP18; test: CellTiter-Glo cell proliferation assay; assay type: cell-based; settings: Homo sapiens, HOP-18, Lung(NSCLC), K-RAS
[18] = test system: H522; test: CellTiter-Glo cell proliferation assay; assay type: cell-based; settings: Homo sapiens, NCI-H522, Lung(NSCLC), WT
[19] = test system: CAL-148; test: CellTiter-Glo cell proliferation assay; assay type: cell-based; settings: Homo sapiens, Breast, Kinase(HET.1047H > R)/-PTEN
Description: as §1, §2, §3

[20] = test system: PC3; test: CellTiter-Glo cell proliferation assay; assay type: cell-based; settings: Homo sapiens, PC-3, Prostate, PTEN
[21] = test system: CAL120; test: CellTiter-Glo cell proliferation assay; assay type: cell-based; settings: Homo sapiens, CAL-120, Breast, WT
Description: as §1, §2, §3

[22] = test system: KPL4; test: CellTiter-Glo cell proliferation assay; assay type: cell-based; settings: Breast, Kinase-HET.1047H > R, HET.350D > N
Description: as §1, §2, §3

[23] = test system: EFM-19; test: CellTiter-Glo cell proliferation assay; assay type: cell-based; settings: Homo sapiens, Breast, Kinase-HOM.1047H > L
Description: as §1, §2, §3

[24] = test system: A549; test: CellTiter-Glo cell proliferation assay; assay type: cell-based; settings: Homo sapiens, Lung(NSCLC), K-RAS
[25] = test system: LS-180; test: CellTiter-Glo cell proliferation assay; assay type: cell-based; settings: Homo sapiens, LS180, Colon, KRAS/HET.1047H > R
[26] = test system: SW48 PIK3CA E545K knock-in mutant subclone; test: four day CellTiter-Glo viability assay, SW48 isogenic cell line set; settings: Homo sapiens, SW48, 96 h, read-out: Viability EC50
Source text: SW48 parental cells and knock-in mutant subclones harboring common PIK3CA hotspot mutations E545K or H1047R were obtained from Horizon Discovery.

[27] = test system: T47D; test: CellTiter-Glo cell proliferation assay; assay type: cell-based; settings: Homo sapiens, Breast, Kinase-HET.1047H > R, HET.350D > N
Description: as §1, §2, §3

[28] = test system: KP4x1; test: CellTiter-Glo cell proliferation assay; assay type: cell-based; settings: Pancreatic, K-RAS
[29] = test system: DLD-1; test: CellTiter-Glo cell proliferation assay; assay type: cell-based; settings: Homo sapiens, Colon, KRAS/HET.545E > K
[30] = test system: SF268; test: CellTiter-Glo cell proliferation assay; assay type: cell-based; settings: Homo sapiens, SF-268, Glioma, WT
[31] = test system: MDA-MB-453; test: CellTiter-Glo cell proliferation assay; assay type: cell-based; settings: Homo sapiens, Breast, Kinase-HET.1047H > R, HET.350D > N
[32] = test system: H2171; test: CellTiter-Glo cell proliferation assay; assay type: cell-based; settings: Homo sapiens, NCI-H2171, Lung(SC), K-RAS
[33] = test system: cancer cell lines; test: cell proliferation assays across cancer cell lines (FIGS. 1-3, 12); assay type: cell-based
Source text: EC50 values were established for the experiments.

[34] = test system: Caov3; test: CellTiter-Glo cell proliferation assay; assay type: cell-based; settings: Homo sapiens, Caov-3, Ovarian, WT
[35] = test system: SW948; test: CellTiter-Glo cell proliferation assay; assay type: cell-based; settings: Homo sapiens, Colon, KRAS/HOM.542E > K
[36] = test system: H292; test: CellTiter-Glo cell proliferation assay; assay type: cell-based; settings: Homo sapiens, NCI-H292, Lung(NSCLC), K-RAS
[37] = test system: IGROV1; test: CellTiter-Glo cell proliferation assay; assay type: cell-based; settings: Homo sapiens, IGROV-1, Ovarian, Kinase-HET.1069O > W
Description: as §1, §2, §3

[38] = test system: HDQ-P1; test: CellTiter-Glo cell proliferation assay; assay type: cell-based; settings: Homo sapiens, Breast, WT
Description: as §1, §2, §3

## Cc1nc(-c2cn3c(n2)-c2ccc(-c4cnn(C(C)(C)C(N)=O)c4)cc2OCC3)n(C(C)C)n1 [GDC-0032, 2-(4-(2-(1-isopropyl-3-methyl-1H-1,2,4-triazol-5-yl)-5,6-dihydrobenzo[f]imidazo[1,2-d][1,4]oxazepin-9-yl)-1H-pyrazol-1-yl)-2-methylpropanamide]
[1]
  EC50: 3.41 µM
[2]
  apoptosis induction (autoradiograms of lysates): induces apoptosis in cells harboring PI3K mutations at very low compound concentrations
[3]
  EC50: 0.057 µM
[4]
  EC50: 0.326 µM
[5]
  EC50: 10 µM
[6]
  EC50: 0.71 µM
[7]; 1.56 mg/kg
  % TGI@ day 21: 53%
[7]; 3.125 mg/kg
  % TGI@ day 21: 79%
[7]; 6.25 mg/kg
  % TGI@ day 21: 98%
[7]; 12.5 mg/kg
  % TGI@ day 21: 118%
[7]; 25 mg/kg
  % TGI@ day 21: 138%
[7]; daily dosing, end of dosing on day 21
  maximum TGI: 138%
[7]; doses of 12.5 and 25 mg/kg
  tumor response: Tumor regressions were observed
[8]
  EC50: 0.043 µM
[9]
  EC50: 0.043 µM
[10]
  EC50: 0.084 µM
[11]
  EC50: 0.211 µM
[12]
  EC50: 5.65 µM
[13]
  EC50: 0.102 µM
[14]
  EC50: 4.98 µM
[15]
  EC50: 3.2 µM
[16]
  EC50: 1.48 µM
[17]
  EC50: 0.077 µM
[18]
  EC50: 10 µM
[19]
  EC50: 0.375 µM
[20]
  EC50: 0.864 µM
[21]
  EC50: 3.84 µM
[22]
  EC50: 0.016 µM
[23]
  EC50: 0.013 µM
[24]
  EC50: 0.906 µM
[25]
  EC50: 0.795 µM
[26]
  EC50: 0.005 µM
[27]
  EC50: 0.045 µM
[28]
  EC50: 2.94 µM
[29]
  EC50: 2.5 µM
[30]
  EC50: 1.07 µM
[31]
  EC50: 0.044 µM
[32]
  EC50: 1.45 µM
[33]; EC50, cell proliferation assays
  sensitivity of cancer cell lines with HER2 amplification versus those without HER2 amplification: about 44 times
[33]; FIGS. 1A, 1B, 2A, 2B
  potency against PIK3CA mutant and HER2+ cells (comparison): more potent against PIK3CA mutant cells and HER2+ breast cancer cells than GDC-0941
[34]
  EC50: 4.79 µM
[35]
  EC50: 0.062 µM
[36]
  EC50: 0.274 µM
[37]
  EC50: 0.031 µM
[38]
  EC50: 0.258 µM
